{
  "source": "patent US20030181401A1",
  "about": "“Insulin secretion promoter” (KYOWA HAKKO KOGYO CO., LTD., priority 2002, published 2003)",
  "type_in_all_cases": "in vivo",
  "key": {"[1]": {"tested_on": "C57BL/KsJ-db/db Jcl mice (model animals of Type II diabetes mellitus)", "assay": "Test Example 1: serum insulin in glucose tolerance test after 7-day oral dosing", "protocol": "Male 9-week-old C57BL/KsJ-db/db Jcl (abbreviated as “db/db” hereinafter) mice (Clea Japan, Inc.), which are model animals of Type II diabetes mellitus, were divided in groups each consisting of 6 mice, and fed a commercially available feed CE-2 (Clea Japan, Inc.) for one week, so as to accustom the animals to the environment.\nAfter acclimation, an aqueous 10% solution of 2′-fucosyllactose (sometimes abbreviated as “2′-FL” hereinafter) was orally administered to the mice at 200 mg (2′-FL)/kg body weight in the morning and at 300 mg (2′-FL) /kg body weight in the evening. The same volume of Saline was administered to the control group. The aqueous 2′-FL solution and the saline were both dosed daily to the mice for 7 days.\nDuring the dosing period, CE-2 was-given together with drinking water ad libitum.\nAfter 18-hour starvation from the final dosing on day 7, an aqueous 40% glucose solution was orally administered to 2 g (glucose)/kg body weight to the mice, to perform glucose tolerance test. Zero minute and 30 minutes after glucose loading, blood was taken from tail vein. […] Blood was centrifuged (4° C., 10000 rpm, 10 minutes), to obtain serum.\nInsulin in the serum recovered was assayed by enzyme immunoassay using Lebis Insulin kit (for rats-T) (Shibayagi, Co., Ltd.) as follows. The kit reacts with insulin in the sera of both rats and mice.\nFirst, the serum recovered was diluted with the buffer attached to the kit to 5 fold. 10 μl of the diluted serum was taken and divided in the wells of the antibody-immobilized plate into which 100 μl of a biotin-bound anti-insulin antibody was added, for reaction at ambient temperature for 2 hours. After the reaction, the plate was rinsed four times with the rinse solution attached to the kit. After rinsing, 100 μl of the peroxidase-avidin bound material was divided in the wells, for reaction at ambient temperature for 30 minutes. After reaction, the plate was rinsed four times with the rinse solution. After rinsing, 100 μl of the chromogenic solution was divided in the wells, for chromogenic reaction for 30 minutes, followed by addition of 100 μl of the reaction termination solution to each well. The absorbance of the reaction solution in the wells at 450 nm was read with a plate reader.\nHerein, a standard curve was prepared by using the 200 ng/ml standard insulin solution (rat) attached to the kit as a standard solution to dilute the standard solution appropriately with the buffer solution attached to the kit for the same reaction as for the serum, and plotting the relation between the concentration and the absorbance (450 nm).\nBased on the prepared standard curve and the absorbance from the reaction with the serum, the insulin concentration in the serum was determined."}, "ICR mice [2]": {"tested_on": "ICR mice", "assay": "Test Example 2: serum insulin in glucose tolerance test after 7-day oral dosing, normal mice", "protocol": "Eleven male 9-week-old ICR mice as normal mice (SLC, Inc.) were fed a commercially available CE-2 (Clea Japan, Inc.) for one week, so as to accustom the mice to the environment.\nAfter acclimation, an aqueous 10% solution of 2′-fucosyllactose was orally administered to the mice at 200 mg (2′-FL)/kg body weight in the morning and at 300 mg (2′-FL)/kg body weight in the evening. The same volume of saline was administered to the control group. The aqueous 2′-FL solution and saline were both dosed daily to the mice for 7 days.\nDuring the dosing period, CE-2 was given together with drinking water ad libitum. […]\nAfter the reaction, the plate was rinsed four times with the rinse solution. […] The absorbance of the reaction solution in the wells at 450 nm was read with a plate reader. Herein, a standard curve was prepared by using the standard insulin solution (mice, 200 ng/ml) attached to the kit as a standard solution to dilute the standard solution appropriately with the buffer solution attached to the kit for the same reaction as for the serum, and plotting the relation between the concentration and the absorbance (450 nm). Based on the prepared standard curve and the absorbance from the reaction with the serum, the insulin concentration in the serum was determined."}, "ICR mice [3]": {"tested_on": "ICR mice", "assay": "Test Example 7: serum insulin after intravenous 2′-FL dosing without glucose loading", "protocol": "Groups of male 9-week-old ICR mice (Japan SLC, Inc.) each consisting of 7 mice were fed a commercially available CE-2 (Clea Japan, Inc.) for one week, so as to accustom the mice to the environment. Thereafter, an aqueous 1% solution of 2′-FL was intravenously administered to the mice to 50 mg (2′-FL)/kg body weight. The same volume of saline was administered to the control group. Zero minute and 30 minutes after dosing, blood was taken from a tail vein. […] Blood was centrifuged (4° C., 10000 rpm, 10 minutes), to obtain serum.\nInsulin in the serum recovered was assayed by enzyme immunoassay using Lebis Insulin kit (for mice-T) (Shibayagi, Co., Ltd.) in the same manner as in the Test Example 2."}, "ICR mice [4]": {"tested_on": "ICR mice", "assay": "Test Example 8: blood glucose in glucose tolerance test after single oral 2′-FL dose", "protocol": "Groups of male 8-week-old ICR mice (Japan SLC, Inc.) each consisting of 6 mice were fed CE-2 (Clea Japan, Inc.) for one week, so as to accustom the animals to the environment.\nThen, the mice accustomed were fasted for 18 hours. An aqueous 2% solution of 2′-FL was orally administered to the mice to 100 mg (2′-FL)/kg body weight, while 0.9% saline was administered orally to the control group. Two hours after the 2′-FL dosing, an aqueous 40% glucose solution was orally administered to 2 g (glucose)/kg body weight to the mice, for glucose tolerance test. […] Blood glucose was assayed with a simple-type blood glucose assay apparatus Medisafe Reader GR-101 (Terumo, Co., Ltd.), while the serum was collected."}, "[5]": {"conditions": "oral 200 + 300 mg/kg daily, 7 days, glucose 2 g/kg oral, 120 minutes, mean ± SD"}},
  "data": [
    {"substance": "2′-fucosyllactose [2′-FL]", "values": [
      {"measurement": "insulin concentration after glucose loading compared with the control group (in words)", "setting": "[1]; continuous daily oral dosing", "result": "increased"},
      {"measurement": "Serum insulin concentration after glucose loading, Zero minute", "setting": "[1]; oral 200 mg/kg morning + 300 mg/kg evening, 7 days, 18-hour starvation, glucose 2 g/kg oral, zero minute, mean ± SD", "result": "6.7 ± 3.3", "unit": "ng/mL"},
      {"measurement": "Serum insulin concentration after glucose loading, 30 minutes", "setting": "[1]; oral 200 + 300 mg/kg daily, 7 days, glucose 2 g/kg oral, 30 minutes, mean ± SD", "result": "8.3 ± 3.9", "unit": "ng/mL"},
      {"measurement": "Serum insulin concentration after glucose loading, 120 minutes", "setting": "[1]; [5]", "result": "26.1 ± 12.8", "unit": "ng/mL"},
      {"measurement": "insulin concentration 120 minutes after glucose loading compared with the control group (in words)", "setting": "ICR mice [2]; continuous daily oral dosing", "result": "increased"},
      {"measurement": "Serum insulin concentration after glucose loading, 120 minutes", "setting": "ICR mice [2]; [5]", "result": "0.35 ± 0.24", "unit": "ng/mL"},
      {"measurement": "Serum insulin concentration after 2′-FL dosing, 30 minutes", "setting": "ICR mice [3]; 50 mg/kg intravenous, no glucose loading, 30 minutes after dosing, mean ± SD", "result": "168.6 ± 40.2", "unit": "pg/mL"},
      {"measurement": "Serum insulin concentration after 2′-FL dosing, 120 minutes", "setting": "ICR mice [3]; 50 mg/kg intravenous, no glucose loading, 120 minutes after dosing, mean ± SD", "result": "2035.9 ± 1098.0", "unit": "pg/mL"},
      {"measurement": "serum insulin concentration compared with the control group (in words)", "setting": "ICR mice [3]; intravenous 2′-FL dosing", "result": "increased"},
      {"measurement": "Blood glucose level after glucose loading, 0 minute", "setting": "ICR mice [4]; ICR mice fasted 18 hours, 100 mg/kg single oral dose two hours before glucose 2 g/kg oral, 0 minute, mean ± SD", "result": "109 ± 4.4", "unit": "mg/dL"},
      {"measurement": "Blood glucose level after glucose loading, 60 minutes", "setting": "ICR mice [4]; ICR mice fasted 18 hours, 100 mg/kg single oral dose two hours before glucose 2 g/kg oral, 60 minutes, mean ± SD", "result": "219 ± 29", "unit": "mg/dL"},
      {"measurement": "Blood glucose level after glucose loading, 120 minutes", "setting": "ICR mice [4]; ICR mice fasted 18 hours, 100 mg/kg single oral dose two hours before glucose 2 g/kg oral, 120 minutes, mean ± SD", "result": "147 ± 14.2", "unit": "mg/dL"},
      {"measurement": "Blood glucose level after glucose loading, −120 minutes", "setting": "ICR mice [4]; ICR mice fasted 18 hours, 100 mg/kg single oral dose two hours before glucose 2 g/kg oral, −120 minutes, mean ± SD", "result": "131 ± 23.6", "unit": "mg/dL"},
      {"measurement": "elevation of blood glucose level (in words)", "setting": "ICR mice [4]; ICR mice, single oral dosing 120 minutes before glucose dosing", "result": "suppressed"}
    ]}
  ]
}
